Results: the supplement of paper PMC10307832

Key:
Test in all cases: relative viability (nuclei count vs DMSO), 5 days (fraction); higher = more cells survive
BI-2536 + Olaparib = compound: CC[C@@H]1C(=O)N(C)c2cnc(Nc3ccc(C(=O)NC4CCN(C)CC4)cc3OC)nc2N1C1CCCC1 [BI-2536] + O=C(c1cc(Cc2n[nH]c(=O)c3ccccc23)ccc1F)N1CCN(C(=O)C2CC2)CC1 [Olaparib] (partner 8 µM)
In short: (§1)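 Lung cancer cell lines, seeded in 1536-well plates, were treated the following day by pin tool with a single drug or with five library-drug doses (not always all listed) in √10 steps on top of a fixed anchor-drug dose. Cells were fixed and nuclei stained in one step after 5 days, and nuclei were counted. Relative viability is the nuclei count for treated wells divided by that for vehicle wells, reported as medians of duplicate plates.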

BI-2536 + Crizotinib = compound: CC[C@@H]1C(=O)N(C)c2cnc(Nc3ccc(C(=O)NC4CCN(C)CC4)cc3OC)nc2N1C1CCCC1 [BI-2536] + C[C@@H](Oc1cc(-c2cnn(C3CCNCC3)c2)cnc1N)c1c(Cl)ccc(F)c1Cl [Crizotinib] (partner 1 µM)
In short: as §1

[1] = compound: CC1CC(=O)N(C2=CN=C(N=C2N1C3CCCC3)NC4=C(C=C(C=C4)C(=O)NC5CCN(CC5)C)OC)C [NPK76-II-72-1] + C[C@]1(O)C[C@@H](c2nc(-c3ccc4ccc(-c5ccccc5)nc4c3)c3c(N)nccn32)C1 [Linsitinib] (partner 1 µM)
In short: as §1

BI-2536 + Pemetrexed = compound: CC[C@@H]1C(=O)N(C)c2cnc(Nc3ccc(C(=O)NC4CCN(C)CC4)cc3OC)nc2N1C1CCCC1 [BI-2536] + Nc1nc2[nH]cc(CCc3ccc(C(=O)N[C@@H](CCC(=O)O)C(=O)O)cc3)c2c(=O)[nH]1 [Pemetrexed] (partner 0.2 µM)
In short: as §1

| Cell Line | relative viability (BI-2536 + Olaparib; first compound 0.01 µM) | relative viability (BI-2536 + Olaparib; first compound 0.03162 µM) | relative viability (BI-2536 + Olaparib; first compound 0.1 µM) | relative viability (BI-2536 + Olaparib; first compound 0.3162 µM) | relative viability (BI-2536 + Olaparib; first compound 1 µM) | relative viability (BI-2536 + Crizotinib; first compound 0.01 µM) | relative viability (BI-2536 + Crizotinib; first compound 0.03162 µM) | relative viability (BI-2536 + Crizotinib; first compound 0.1 µM) | relative viability (BI-2536 + Crizotinib; first compound 0.3162 µM) | relative viability (BI-2536 + Crizotinib; first compound 1 µM) | relative viability ([1]; first compound 0.01 µM) | relative viability ([1]; first compound 0.03162 µM) | relative viability ([1]; first compound 0.1 µM) | relative viability ([1]; first compound 0.3162 µM) | relative viability ([1]; first compound 1 µM) | relative viability (BI-2536 + Pemetrexed; first compound 0.01 µM) | relative viability (BI-2536 + Pemetrexed; first compound 0.03162 µM) | relative viability (BI-2536 + Pemetrexed; first compound 0.1 µM) | relative viability (BI-2536 + Pemetrexed; first compound 0.3162 µM) | relative viability (BI-2536 + Pemetrexed; first compound 1 µM) |
| --- | --- | --- | --- | --- | --- | --- | --- | --- | --- | --- | --- | --- | --- | --- | --- | --- | --- | --- | --- | --- |
| NCI-H2085 | 0.786 | 0.697 | 0.544 | 0.341 | 0.381 | 0.895 | 0.751 | 0.578 | 0.254 | 0.307 | 0.914 | 0.997 | 0.934 | 0.87 | 0.923 | 0.961 | 1.01 | 0.664 | 0.172 | 0.243 |
| NCI-H1734 | 0.605 | 0.618 | 0.254 | 0.176 | 0.153 | 0.644 | 0.548 | 0.35 | 0.204 | 0.158 | 0.896 | 0.899 | 0.883 | 0.884 | 0.904 | 0.39 | 0.36 | 0.279 | 0.211 | 0.188 |
| NCI-H2126 | 0.968 | 0.891 | 0.77 | 0.322 | 0.241 | 1.04 | 0.85 | 0.85 | 0.341 | 0.253 | 0.756 | 0.777 | 0.701 | 0.671 | 0.752 | 0.747 | 0.74 | 0.369 | 0.286 | 0.217 |
| EMC-BAC-2 | 0.463 | 0.324 | 0.303 | 0.207 | 0.231 | 0.882 | 0.791 | 0.701 | 0.174 | 0.145 | 0.814 | 0.848 | 0.848 | 0.747 | 0.793 | 0.44 | 0.429 | 0.367 | 0.309 | 0.285 |
